Results: US6528518B2, “Treatment of depression with kappa receptor antagonists” (The McLean Hospital Corporation, priority 2000, dated 2003)
Entries after “also recorded” stand apart in the source; their conditions may differ.

Assays:
rats [1] = test: Cocaine place conditioning after HSV gene transfer into the NAc; type: in vivo, rat; settings: cocaine 5.0 mg/kg IP, FIG. 2B
Method: Place conditioning was performed in a three compartment apparatus. During screening (day 0), rats were placed in the small (12×18×33 cm) central compartment and were allowed to explore the entire apparatus for 30 minutes. The compartments differed in floor texture, wall striping, and lighting. Rats showing no baseline preference were used for the study. Rats received bilateral microinjections (2.0 μl per side) at AP+1.7 mm, Lat±2.3 mm, and DV 6.8 mm. Injections were made over 10 minutes using a 26 gauge needle.
Behavioral testing began on day 3 after vector injection. On the first conditioning trial of each day, rats received saline (1 ml/kg, i.p.) and were confined to one of the large (24×18×33 cm) side compartments of the apparatus. After three hours, rats received cocaine (1.25 mg/kg, i.p.) and were confined to the other side compartment. Three types of conditioning session were used: a one hour pairing session where the animals were placed immediately into the apparatus immediately after treatment for one hour; 15 minute pairing session where the animals were placed immediately into the apparatus immediately after treatment for 15 minutes; or a delayed pairing session where the animals were placed in the apparatus for one hour following a 15 minute delay from drug exposure. […]

[2] = following systemic administration; cited from earlier work
rats [3] = test: Forced swim test (FST), latency to become immobile on re-test; type: in vivo, rat; settings: for Latencies to become immobile in the FST: kappa antagonist given ICV (norBNI 5.0 or 20 μg), FIG. 5 and 6A; for Latencies to become immobile on the re-test day in the FST: standard antidepressants vs vehicle (0 mg/kg), FIG. 3A
Method: Another symptom of clinical depression that can be modeled in rats is despair, a feeling of hopelessness. Symptoms of despair can be induced in rats using the forced swim test (FST), a highly validated model used to study antidepressant treatments.
The FST is a two day procedure in which rats swim under conditions in which escape is not possible. On the first day, the rats are forced to swim for 15 minutes. The rats initially search for an escape from the water, but eventually adopt a posture of immobility in which they make only the movements necessary to keep their heads above water. Upon re-testing one day later, latencies to become immobile—an indicator of how rapidly the rats “give up” in response to a familiar stressor—are decreased, which is inferred as despair. Standard antidepressants such as desipramine (DMI) and fluoxetine (FLX) extend latencies to become immobile. Drug efficacy in this animal model is predictive of antidepressant efficacy in humans.
CREB-mediated increases in dynorphin expression within the NAc underlie the decreases in the pleasurable effects of cocaine in the place conditioning paradigm: blockade of brain kappa opioid receptors (on which dynorphin acts) eliminates CREB-induced aversion to cocaine. To determine whether disruption of dynorphin function also eliminates CREB-induced despair in the FST, brain kappa receptors were blocked with either norBNI (nor-binaltorphimine) or GNTI (5′-guanidinyl-17-(cyclopropylmethyl)-6,7-dehydro-4,5α-epoxy-3,14-dihydroxy-6,7-2′,3′-indolomorphinan). […] As with CREB-induced anhedonia, dynorphin is critically involved in CREB-induced despair. Furthermore, they indicate that disruption of CREB function in this region may have antidepressant actions.

rats [4] = test: Locomotor activity in automated activity chambers 24 hours after first FST; settings: for Locomotor effects / non-specific motor function: after ICV injection, vs vehicle control, FIG. 6B; for Activity: high doses, vs vehicle (0 mg/kg), FIG. 3B
Method: To examine the effects of gene transfer and antidepressant therapy on locomotor activity, groups of rats were tested for 1 hour in automated activity chambers 24 hours after the first FST.

[5] = humans; cited from earlier work

| SMILES | Penetration of the blood-brain-barrier [2] | Latencies to become immobile in the FST (rats [3]) | Locomotor effects / non-specific motor function (rats [4]) | Latencies to become immobile on the re-test day in the FST (rats [3]) | Activity (rats [4]) | other results |
| --- | --- | --- | --- | --- | --- | --- |
| COC(=O)[C@H]1[C@@H](OC(=O)c2ccccc2)C[C@@H]2CC[C@H]1N2C [cocaine] |  |  |  |  |  | Place preference, time spent in cocaine-associated environments (rats [1]; HSV-CREB group): no effect; Place preference, time spent in cocaine-associated environments (rats [1]; HSV-mCREB and vehicle groups): ~600 s |
| NC(N)=Nc1ccc2[nH]c3c(c2c1)C[C@@]1(O)[C@H]2Cc4ccc(O)c5c4[C@@]1(CCN2CC1CC1)[C@H]3O5 [GNTI, 5′-guanidinyl-17-(cyclopropylmethyl)-6,7-dehydro-4,5α-epoxy-3,14-dihydroxy-6,7-2′,3′-indolomorphinan] | neither compound can penetrate the blood-brain-barrier | significantly longer latencies than the control group; also recorded: dose-dependently increased latencies to become immobile | Neither compound affected non-specific motor function |  |  | Potency relative to norBNI for increasing latencies to become immobile in the FST (rats [3]; ICV, FIG. 6A): roughly equipotent to norBNI |
| CNCCCN1c2ccccc2CCc2ccccc21 [DMI, desipramine] |  |  |  | increased | decreased by high doses |  |
| Oc1ccc2c3c1O[C@H]1c4[nH]c5c(c4C[C@@]4(O)[C@@H](C2)N(CC2CC2)CC[C@]314)C[C@@]1(O)[C@H]2Cc3ccc(O)c4c3[C@@]1(CCN2CC1CC1)[C@H]5O4 [norBNI, nor-binaltorphimine] | neither compound can penetrate the blood-brain-barrier | dose-dependently increased latencies to become immobile; also recorded: significantly longer latencies than the control group | Neither compound affected non-specific motor function |  |  |  |
| CN1Cc2c(N)cccc2C(c2ccccc2)C1 (stereo not drawn) [Nomifensine] |  |  |  |  |  | Adverse reactions [5]: caused lethal allergic reactions in some people; Antidepressant efficacy in the clinic [5]: clinically effective antidepressant |
| CNCCC(Oc1ccc(C(F)(F)F)cc1)c1ccccc1 (stereo not drawn) [FLX, fluoxetine] |  |  |  | increased | decreased by high doses |  |
